From patent US20120034162A1, “Fullerene Assisted Cell Penetrating Peptides” (William March Rice University, priority 2006, published 2012)
Entries after “also recorded” stand apart in the source; their conditions may differ. Each block holds one compound with its values, some of them ahead of it. Primed or numbered codes have the meaning given here. Ends that are not written are not given here. Baa″ = fullerene (C60, Bucky) amino acid derivative of phenylalanine; Baa = not defined here

What was measured:
IMR32 cancer cell line = assay: Cellular proliferation, CCK-8 assay; assay type: cell-based
Experimental: Cellular proliferation studies. Cancer cells at 5×10^4 cells/well were plated in triplicate in standard flat-bottomed 96-well tissue culture plates in the presence of fullerene peptides in PBS buffer with a final volume of 100 μL. Unless otherwise indicated, cells were grown for 48 h at 37° C. in a CO2 incubator. Relative cell growth was determined by Cell Counting Kit-8 (CCK-8) cell proliferation assay as described by the manufacturer using an automated plate reader. Results were calculated in a blinded fashion and are the means of bi or triplicate determinations. […] This difference is possibly because the relative propensity of Baa-2HP to precipitate under acidic conditions is less than that of Baa-3HP. Thus, the formation of aggregates of Baa-3HP would cause the inhibition of cell growth. However, we cannot discount alternative factors such as the sequence and its overall charge differences. For example, the strength of the aggregate may be greater for Baa-3HP than Baa-2HP due to the stronger self-assembly forces in 3HP.

[1] = Peptide secondary structure (CD) and appearance (TEM) as a function of pH; assay type: physicochemical; conditions: for Secondary structure with decreasing pH: CD spectra; for Appearance / diameter of non-fibrous particles: TEM; for diameter of non-fibrous particles: micelles at pH 4 (21), precipitate particles at pH 6 and lower (22)
Experimental: (§1) Rink amide and Wang resin were obtained from Novabiochem, USA. Amino acids were purchased from Novabiochem and used as received. MALDI-TOF mass analysis was performed on a linear Protein-TOF Bruker instrument using sinipinic acid as the matrix. CD spectra were obtained on a Jasco J-700 dichrometer using 1 mm path-length quartz cells. Peptide solutions were 1.0 mg·mL^−1 solution in milliQ H2O or PBS buffer. In the case of peptides (21, 22 and 23), the pH was first adjusted to 10 to break up any aggregations and then adjusted by addition of 0.1 mM HCl until the desired pH was obtained. CD spectra were recorded in millidegrees and converted to residual molar ellipticity. TEM measurements were performed on a JEOL 2010 TEM at 200 kV. DLS Measurements were performed on the samples using an Brookhaven 90Plus submicron particle-size analyzer with HeNe laser (30 mW) that operates at […] wavelength.
Control of peptide secondary structure by fullerene amino acids. In an effort to understand the effect of the C60 substituents on the secondary structure of a peptide we have investigated two sequences and the position within a particular sequence. The well characterized model heptad peptides Glu-Ile-Ala-Gln-Leu-Glu-Tyr-Glu-Ile-Ser-Gln-Leu-Glu-Gln-NH2 (2HP, 22 in Table 1) […]NH2 (3HP, 23 in Table 1) were chosen because they are known to form fibers at pH below 7 concomitant with β-sheet formation. To investigate the effects of the presence and C60 on the conformation of the peptide the model peptide 2HP was prepared in which either tyrosine was replaced by Baa (21 in Table 1) or Baa was added to the C-terminus (22 in Table 1). The C-terminus derivative 23 was also prepared for 3HP.

[2] = test system: MDA-MB neoroblastoma cells; assay: Cellular proliferation, CCK-8 assay; assay type: cell-based; conditions: 48 h
Experimental: (§2) Cellular proliferation studies. Cancer cells at 5×10^4 cells/well were plated in triplicate in standard flat-bottomed 96-well tissue culture plates in the presence of fullerene peptides in PBS buffer with a final volume of 100 μL. Unless otherwise indicated, cells were grown for 48 h at 37° C. in a CO2 incubator. Relative cell growth was determined by Cell Counting Kit-8 (CCK-8) cell proliferation assay as described by the manufacturer using an automated plate reader. Results were calculated in a blinded fashion and are the means of bi or triplicate determinations.
A similar comparison has been made with MDA-MB neoroblastoma cells (FIG. 25) using H-Baa-Lys(FITC)-NLS (26), Baa-Penetratin (29) and Baa-Glu-Glu-Glu-Glu-Gly-Gly-Gly-Ser-OH (27). […] Given that both H-Baa-Lys(FITC)-NLS and Baa-Penetratin are cationic peptides which are readily taken up by the cells the cell inhibition cannot be a function of the uptake (i.e., intracellular concentration), but must also be dependent on the sequence.

[3] = test system: MCF-7 breast cancer cells; assay: Cellular proliferation, CCK-8 assay; assay type: cell-based; conditions: MCF-7, 48 h, concentration given with value
Experimental: as §2
The effect of different Baa-peptide sequences on the cell viability of MCF-7 breast cancer cells was investigated to determine if the sequence has an effect rather than the presence of the C60. […] This is in agreement with the MTT cell viability test (see above). […] Clearly the sequence has a significant effect on the cell viability. However, it is worth noting that this may be due to either inherent differences in toxicity or differences in cellular uptake.

[4] = Antioxidant properties (IC50 determined by Csixty Inc. through an established method); assay type: biochemical
Excerpt: A plot of inhibition as a function of concentration for peptide 27 is shown in FIG. 18 with a comparison of Baa and Trolox. […] It is unclear at the present time the reason for the slight reduction in activity between Baa and Baa-Glu-Glu-Glu-Glu-Gly-Gly-Gly-Ser-OH. Given that the peptide's aggregation in aqueous solution presumably results in the “Glu-Glu-Glu-Glu-Gly-Gly-Gly-Ser-OH” being exposed to the solution, the sequence could act as a buffer limiting electron transfer processes.

HEK-293a cells [5] = assay: Cellular uptake by fluorescence microscopy; assay type: cell-based, human; conditions: for cellular uptake / localization by fluorescence: 40 μM, 24 hrs, 37° C.; for Active Cellular Uptake: HEK-293a cells
Experimental: Cellular uptake. An immortalized human embryonic kidney epithelial cancer cell line was used in initial cellular uptake studies. HEK-293a cells were cultured in RMPI 1640 medium supplemented with 10% fetal bovine serum (FBS) in 5% CO2 and 37° C. humidified incubator. The medium was supplemented with penicillin (100 U·mL^−1), streptomycin (100 μg/mL), and glutamine (2 mM). For experiments and microscopy, cells were seeded at 1×10^4 cells per well on 6-well plates and grown for two days in RPMI supplemented with 10%. Cells were incubated with each peptide (40 μM) for 24 hrs at 37° C. After treatment, the cells were washed with RPMI supplemented with 10% FBS and phosphate buffered saline (PBS, 10 mM). Fluorescence was observed by a fluorescent microscope equipped with FITC and red filters.

[6] = Peptide aggregation, particle size in solution by dynamic light scattering (DLS); assay type: physicochemical; conditions: PBS buffer; for aggregate size, major (or single) component: 0.125-2.0 mg/mL
Experimental: as §1
With reference back to Table 1, in order to understand the intracellular transport of the FITC functionalized Baa-peptides, 25 and Baa-Lys(FITC)-NLS (26), their particle size in solution was determined by dynamic light scattering (DLS). Three series of solutions of 24, 25 and 26 in the range of 0.125-2.0 mg/mL was prepared by weighing method. PBS buffer prepared from HPLC grade water was used as solvent and was filtered through a […] cup filter (Millipore, Express).

HEK-293a cells [7] = assay: Cellular uptake by fluorescence microscopy; assay type: cell-based, human
[8] = assay type: in vitro ADME, bovine
Excerpt: Peptide stability. In order to test the stability of the fullerene peptide linkage, samples of Baa-Lys(FITC)-Lys8-OH and H-Baa-Lys(FITC)-NLS were exposed to bovine plasma for up to 3 days and analyzed by HPLC.

[9] = Aggregate size and morphology by cryo-TEM; assay type: physicochemical; conditions: 1.0 mg/mL in PBS buffer, pH 7
Experimental: To further examine the actual aggregate size and morphology, cryo-TEM experiments were performed for both peptides 25 and 26. The images were taken in the concentration of 1.0 mg/mL for both peptides. Samples for cryo-TEM studies were prepared by dipping a copper grid coated with amorphous carbon-holey film into the sample solution. The TEM images were mainly taken in the hole region of the TEM grid to minimize the artificial effect from the samples or ice. […] Both peptides forms spherical and ellipsoidal clusters, with an average aggregate sizes of 40-80 nm for 25 and 50-150 nm for 26, which are generally smaller than the diameters observed by DLS. Consistent with the DLS study, Baa-Lys(FITC)-Lys8-OH (25) are more uniform in size than Baa-Lys(FITC)-NLS (26). FIGS. 9a and 9b show the vitreous ice cryo-TEM micrograph of the large aggregates (9a) and small aggregates (9b) formed by Baa-Lys(FITC)-Lys8-OH in PBS buffer (1 mg/mL at pH=7). There are two dominant groups in size for 25; one type has the diameter of 40-80 nm with predominant population at size of ca. 50 nm, and the other population has a diameter less than 20 nm, which may correspondent to the size of fullerene peptides itself. In contrast, the size distribution of 26 large aggregates is much polydisperse, ranging from 50-150 nm with no obvious dominant population for large aggregates, while smaller aggregates has similar size as Baa-Lys(FITC)-Lys8-OH. FIGS. 10a and 10b show the vitreous ice cryo-TEM micrograph of the large aggregates (10a) and small aggregates (10b) formed by Baa-Lys(FITC)-NLS in PBS buffer (1 mg/mL at pH=7). The aggregate sizes from the two peptides seem to be consistent with the hydrophilicity of peptide chain as more hydrophilic sequence corresponds to smaller size (25), and vice versa (26).

Compound: Baa-Glu-Ile-Ala-Gln-Leu-Glu-Tyr-Glu-Ile-Ser-Gln-Leu-Glu-Gln-NH2 ({Baa″}-EIAQLEYEISQLEQ-NH2) [Peptide 22]
- inhibition of cell growth (IMR32 cancer cell line; IMR32, up to 37 μM): no inhibition
- Secondary structure with decreasing pH [1]: random coil → α-helix
- Appearance [1]: aggregates
- diameter of non-fibrous particles [1]: approximately 20 nm
- inhibition of cell growth [2]: no obvious inhibition
- inhibition of cell growth [3]: no obvious inhibition

Compound: Glu-Ile-Ala-Gln-Leu-Glu-Tyr-Glu-Ile-Ser-Gln-Leu-Glu-Gln-NH2 (EIAQLEYEISQLEQ-NH2) [Peptide 2HP, parent model heptad peptide without Baa, reference compound]
- Secondary structure with decreasing pH [1]: random coil → α-helix → β-sheet
- Appearance [1]: fibers

- IC50 [4]: 480 µM
Compound: Cc1c(C)c2c(c(C)c1O)CCC(C)(C(=O)O)O2 (stereo not drawn) [Trolox, reference compound]

Compound: Baa-Glu-Ile-Ala-Gln-Leu-Glu-Tyr-Glu-Ile-Ser-Gln-Leu-Glu-Gln-Glu-Ile-Gln-Ala-Leu-Glu-Ser-NH2 ({Baa″}-EIAQLEYEISQLEQEIQALES-NH2) [Peptide 23]
- inhibition of cell growth (IMR32 cancer cell line; IMR32, 100 μg·mL^−1 (29.4 μM)): significant inhibition
- Secondary structure with decreasing pH [1]: α-helix coiled
- Appearance [1]: fibers
- inhibition of cell growth [2]: no obvious inhibition
- inhibition of cell growth [3]: no obvious inhibition

Compound: Lys(FITC)-(Lys)8-OH [reference compound]
- cellular uptake / localization by fluorescence (HEK-293a cells [5]): no uptake
- Active Cellular Uptake (HEK-293a cells [5]): No

- Secondary structure with decreasing pH [1]: β-sheet
- Appearance [1]: fibers^a
- diameter of non-fibrous particles [1]: 8-10 nm
Compound: Glu-Ile-Ala-Gln-Leu-Glu-Baa-Glu-Ile-Ser-Gln-Leu-Glu-Gln-NH2 [Peptide 21]

Compound: Glu-Ile-Ala-Gln-Leu-Glu-Tyr-Glu-Ile-Ser-Gln-Leu-Glu-Gln-Gln-Glu-Ile-Gln-Ala-Leu-Glu-Ser-NH2 (EIAQLEYEISQLEQQEIQALES-NH2) [Peptide 3HP, parent model heptad peptide without Baa, reference compound]
- Secondary structure with decreasing pH [1]: random coil → α-helix
- Appearance [1]: fibers

- IC50 [4]: 89 µM
Compound: Baa-Glu-Glu-Glu-Glu-Gly-Gly-Gly-Ser-OH ({Baa″}-EEEEGGGS-OH) [Peptide 27]
- inhibition of cell growth [2]: significant inhibition for solutions above 8-14 μM
- antioxidant activity relative to Trolox ([4]; molar, from IC50): ca. five fold
- inhibition of cell growth [3]: no cellular inhibition up to 57 μM

- aggregate size, major (or single) component [6]: ca. 200 nm
- aggregate distribution, single broad aggregate ([6]; 0.25-2.0 mg/mL): 50-350 nm
Compound: Baa-(Lys)8-OH [Peptide 24]

- aggregate size, minor smaller component [6]: ca. 10 nm
- fraction of major aggregate component [6]: ca. 60%
- third larger aggregate size at high concentration ([6]; 2.0 mg/mL (25), above 1.0 mg/mL (26)): ca. 1500 nm
- distribution of minor smaller aggregate ([6]; 0.125-1.0 mg/mL): 5-20 nm
- aggregate size, major (or single) component [6]: ca. 180 nm
- degradation of the sample in bovine plasma [8]: No degradation
- average aggregate size (large aggregates) [9]: 40-80 nm
- diameter of small aggregate population [9]: less than 20 nm
- predominant population size of large aggregates [9]: ca. 50 nm
Compound: Baa-Lys(FITC)-(Lys)8-OH [Peptide 25]
- cellular uptake at 4° C. (HEK-293a cells [7]): no cellular uptake activity
- cellular uptake / localization by fluorescence (HEK-293a cells [5]; listed as H-Baa-Lys(FITC)-Lys8-OH): strong green fluorescence within the cytoplasm; also recorded: accumulates in the cytoplasm
- Active Cellular Uptake (HEK-293a cells [5]): Yes

Compound: Baa-Lys(FITC)-Glu-Glu-Glu-Glu-Gly-Gly-Gly-Ser-OH ({Baa″-Lys(FITC)}-EEEEGGGS-OH) [Peptide 28]
- uptake intensity in comparison with the cationic fullerene peptides (HEK-293a cells [5]; same concentration, cell line not restated): greatly reduced

Compound: Baa-Arg-Gln-Ile-Lys-Ile-Trp-Phe-Gln-Asn-Arg-Arg-Met-Lys-Trp-Lys-Lys-OH (Baa-RQIKIWFQNRRMKWKK-OH; reading uncertain) [Peptide 29]
- inhibition of cell growth [2]: significant inhibition for solutions above 8-14 μM
- inhibition of cell growth [3]: significant inhibition effect at 31.4 μM
